Laboratory results reported in the NIST ThermoML archive (doi:10.1021/je060271a).

Conditions: 283.15 K, Liquid, Vibrating tube method

CCCCC(=O)OCC(COC(=O)CCCC)(COC(=O)CCCC)COC(=O)CCCC [pentaerythritol tetrapentanoate]
Conditions	mass density [kg/m3]
17085 kPa	1036.8
17119 kPa	1037
17147 kPa	1036.9
17175 kPa	1036.9
17208 kPa	1036.9
17236 kPa	1036.9
17270 kPa	1036.9
17299 kPa	1037
17327 kPa	1037
17355 kPa	1037.1
17390 kPa	1037
17419 kPa	1037.1
17449 kPa	1037.2
17478 kPa	1037
17514 kPa	1037
17542 kPa	1037.2
17572 kPa	1037.1
17607 kPa	1037.1
17637 kPa	1037.4
17666 kPa	1037.2
17702 kPa	1037.3
17732 kPa	1037.2
17762 kPa	1037.3
17798 kPa	1037.3
17829 kPa	1037.1
17860 kPa	1037.4
17890 kPa	1037.4
17927 kPa	1037.2
17958 kPa	1037.4
17995 kPa	1037.4
18026 kPa	1037.4
18058 kPa	1037.4
18097 kPa	1037.4
18130 kPa	1037.4
18164 kPa	1037.4
18197 kPa	1037.5
18237 kPa	1037.5
18262 kPa	1037.5
18283 kPa	1037.6
18309 kPa	1037.6
18330 kPa	1037.6
18356 kPa	1037.5
18377 kPa	1037.6
18399 kPa	1037.6
18421 kPa	1037.6
18446 kPa	1037.8
18468 kPa	1037.6
18490 kPa	1037.7
18517 kPa	1037.7
18539 kPa	1037.6
18561 kPa	1037.7
18588 kPa	1037.6
18610 kPa	1037.8
18631 kPa	1037.7
18657 kPa	1037.6
18680 kPa	1037.8
18702 kPa	1037.9
18728 kPa	1037.6
18750 kPa	1037.7
18778 kPa	1037.8
18800 kPa	1037.8
18823 kPa	1037.9
18845 kPa	1037.8
18874 kPa	1037.8
18896 kPa	1037.8
18919 kPa	1037.9
18947 kPa	1037.9
18970 kPa	1037.8
18993 kPa	1037.9
19021 kPa	1038
19044 kPa	1037.9
19067 kPa	1037.8
19094 kPa	1037.9
19118 kPa	1038
19142 kPa	1038.1
19166 kPa	1038
19191 kPa	1038
19219 kPa	1038
19243 kPa	1038
19266 kPa	1038
